What all share (assay): relative viability (nuclei count vs DMSO), 5 days (fraction); higher = more cells survive
Compound in the experiment “Bemcentinib + AZD7762”: Nc1nc(Nc2ccc3c(c2)CC[C@@H](N2CCCC2)CC3)nn1-c1cc2c(nn1)-c1ccccc1CCC2 [Bemcentinib] + NC(=O)Nc1cc(-c2cccc(F)c2)sc1C(=O)N[C@H]1CCCNC1 [AZD7762] (partner 0.2 µM)
In short, it runs like this:
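Five library-drug doses in √10 steps were combined with a fixed anchor-drug dose, or a single drug was given alone, by pin tool to lung cancer cell lines in 1536-well plates the day after seeding. Nuclei were stained and counted after 5 days. Relative viability is the nuclei count in treated wells over that in vehicle wells, taken as the median of duplicate plates.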

Compound in the next experiment: CC1=CC=C(C=C1)C(=O)CN2C3=C(CCCC3)SC2=N [Pifithrin_alpha]
The procedure, abridged:
(§1)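 Viability was read as treated-well nuclei divided by vehicle-well nuclei, using the median across plates. Lung cancer cell lines in 1536-well plates were kept overnight at 37 °C, pinned with five √10-spaced library-drug doses, and after 5 days were Hoechst-stained, imaged at 4× and counted in MetaXpress. Plates passed only with control CV below 25% and at least one doubling.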

Compound in a further experiment: CNC(=O)c1ccccc1Sc1ccc2c(/C=C/c3ccccn3)n[nH]c2c1 [Axitinib]
The procedure, abridged: as §1

Compound in a further experiment: Nc1nc(Nc2ccc3c(c2)CC[C@@H](N2CCCC2)CC3)nn1-c1cc2c(nn1)-c1ccccc1CCC2 [Bemcentinib]
The procedure, abridged:
as §1

Consider NCI-H650, for which the relative viability with Bemcentinib + AZD7762 (first compound 0.04 µM) turned out to be 0.956; with Bemcentinib + AZD7762 (first compound 0.1265 µM) it was 0.964; with Bemcentinib + AZD7762 (first compound 0.4 µM), 1.15; in the experiment with Bemcentinib + AZD7762 (first compound 1.265 µM) it was 0.886; in the experiment with Bemcentinib + AZD7762 (first compound 4 µM) it was 1.17; with Pifithrin_alpha (3.162 µM), 0.912. Besides, the relative viability with Pifithrin_alpha (10 µM) was found to be 1.07; in the experiment with Pifithrin_alpha (31.62 µM) it was 0.766; with Pifithrin_alpha (100 µM), 0.863; with Axitinib (0.005 µM) it was 1.01; with Axitinib (0.01581 µM) it was 0.983; in the experiment with Axitinib (0.05 µM) it was 0.892. Further, the relative viability with Axitinib (0.1581 µM) was found to be 1.1; with Axitinib (0.5 µM) it was 1.01; with Bemcentinib (0.04 µM), 0.866; in the experiment with Bemcentinib (0.1265 µM), 1.01; in the experiment with Bemcentinib (0.4 µM), 1.15; in the experiment with Bemcentinib (1.265 µM) it was 0.838. Also, in the experiment with Bemcentinib (4 µM), the relative viability was 0.871.

The record behind these values is the supplement of paper PMC10307832.
